Test [1] deals with recombinant Mcl-1 (residues 172-327) (Homo sapiens (Human), UniProt Q07820). The experiment in a line: Bak peptide binding assay, fluorescence polarization anisotropy competition (FITC-Bak), Mcl-1.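 Further: displacement of labeled Bak peptide read by fluorescence anisotropy, 10-point threefold dilutions from 20 µM top dose in 5% DMSO, 90 min incubation at room temperature.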 To be noted: FITC-Bak peptide 10 nM, Mcl-1 14 nM.
Description: Compound affinity was measured using a fluorescence polarization anisotropy competition assay. Anisotropy measurements were carried out in 384-well, black, flat-bottom plates (Greiner Bio-one, Monroe, N.C., USA). […] 10 nM FITC-Bak peptide and 14 nM recombinant Mcl-1 (residues 172-327) were added to assay buffer (3 mM dithiothreitol, 50 mM NaCl, 20 mM Tris, pH 7.5).
Test [2] concerns K562. The experiment in a line: Cellular viability assay, CellTiter-Glo, K562. The format is cell-based. To be noted: Homo sapiens, Table 6 viability assay (method: reduced serum, 1% FBS). Here is the method: (§1) Cellular Viability of a Human Tumor Cell Lines
(§2) Human cancer cell lines NCI-H23, K562, NCI-H929, and MV-4-11 were cultured in media supplemented with 10% fetal bovine serum (FBS). To evaluate compound effect on cellular proliferation, cells were plated at 1,000 cells/well in 96-well tissue culture plates in a total volume of 90 uL medium supplemented with 10% FBS (Sigma, Saint Louis, Mo.). 24 hours later, 10 uL of compound (in a 2-fold serial dilution) is added to the cells for a top concentration of 50 uM and a final DMSO concentration <1%. After 72 hours, cell number was measured using the CellTiter-Glo Luminescent assay according to manufacturer's recommendations (Promega, Madison, Wis.). A viability assay in reduced serum was also conducted. Cells were plated at 5,000 cells/well in 96-well plates in a total volume of 100 uL medium supplemented with 10% FBS (Sigma, Saint Louis, Mo.). 24 hours later, the medium was replaced with 90 uL medium containing 1% FBS and the assay conducted as described. EC50 values were determined by plotting growth against compound concentration in a 4-parameter logisitic model in XLFit.

Test [3] deals with NCI-H23. Nature of the test: Cellular viability assay, CellTiter-Glo, NCI-H23. The class given is cell-based. To be noted: Homo sapiens, Table 6 viability assay (method: reduced serum, 1% FBS). Here is the method: as §1, §2
Test [4] has as its system K562. The experiment in a line: Cellular proliferation, CellTiter-Glo, K562. The format is cell-based. Particulars: Homo sapiens, 10% FBS, 72 hours. Here is the method: as §1, §2
Test [5] relates to MV-4-11. The experiment in a line: Cellular proliferation, CellTiter-Glo, MV-4-11. The format is cell-based. Particulars: Homo sapiens, MV4-11, 10% FBS, 72 hours, read-out: EC50 on cellular proliferation, NV-4-11. Here is the method:
as §1, §2

Test [6] relates to NCI-H23. Nature of the test: Cellular proliferation, CellTiter-Glo, NCI-H23. The format is cell-based. To be noted: Homo sapiens, 10% FBS, 72 hours. Here is the method: as §1, §2
Test [7] has as its target Bcl-2 (residues 1-207 A96T,G110R, Δ35-91, replaced with Bcl-xL35-50) (Homo sapiens (Human), UniProt P10415, DEL35-91/INS34DVEENRTEAPEGTESE). Nature of the test: Bak peptide binding assay, fluorescence polarization anisotropy competition (FITC-Bak), Bcl-2 selectivity. To be noted: Table 4; FITC-Bak peptide 10 nM, Bcl-2 40 nM. As for the experimental part: (§3) Bak Peptide Binding Assay
(§4) Compound affinity was measured using a fluorescence polarization anisotropy competition assay. Anisotropy measurements were carried out in 384-well, black, flat-bottom plates (Greiner Bio-one, Monroe, N.C., USA). The assay was run using a fluorescein isothiocyanate-labeled BH3 peptide derived from Bak (FITC-AHx-[…]-NH2) that was purchased from GenScript (Piscataway, N.J.) at >95% purity and used without further purification. 10 nM FITC-Bak peptide and 14 nM recombinant Mcl-1 (residues 172-327) were added to assay buffer (3 mM dithiothreitol, 50 mM NaCl, 20 mM Tris, pH 7.5). For selectivity assays, 40 nM Bcl-2 (residues 1-207^A96T,G110R, Δ35-91, replaced with Bcl-xL35-50) or 4 nM Bcl-xL (residues 1-209, loop 45-86 deleted) were incubated with 10 nM FITC-Bak in assay buffer.
(§5) Compounds are diluted in DMSO in a 10-point, 3-fold serial dilution scheme. 2.5 uL compound is added to 47.5 uL of assay buffer containing FITC-Bak and protein, for a final DMSO concentration of 5% and a top concentration of 20 uM. […] The plate was mixed and incubated for 90 minutes at room temperature. Anisotropy is measured at excitation wavelength 480 nm and emission wavelength 535 nm using an EnVision Multi-label plate reader (PerkinElmer, Wellesley, Mass., USA). Fluorescence anisotropy is plotted against compound concentration to generate an IC50 (inhibitor concentration at which 50% of bound peptide is displaced) by fitting the data to a 4-parameter logistic model using XLFit software (Guildford, Surrey, UK). IC50 is converted to a binding dissociation constant (Ki value) according to the formula of Wang Z. FEBS Lett (1996) 3, 245: Ki=[I]50/([L]50/Kd+[P]0/Kd+1) where [I]50 is the concentration of the free inhibitor at 50% inhibition, [L]50 is the concentration of the free labeled ligand at 50% inhibition, [P]0 is the concentration of the free protein at 0% inhibition, Kd represents the dissociation constant of the FITC peptide probe.

Test [8] deals with Bcl-xL (residues 1-209, loop 45-86 deleted) (Homo sapiens (Human), UniProt Q07817, DEL45-86). The experiment in a line: Bak peptide binding assay, fluorescence polarization anisotropy competition (FITC-Bak), Bcl-xL selectivity. To be noted: Table 4; FITC-Bak peptide 10 nM, Bcl-xL 4 nM. As for the experimental part: as §3, §4, §5
The test system of test [9] is MV-4-11. The experiment in a line: Cellular viability assay, CellTiter-Glo, MV-4-11. Particulars: Homo sapiens, MV4-11, Table 6 viability assay (method: reduced serum, 1% FBS), read-out: EC50 on cellular viability, NV-4-11. The format is cell-based. Here is the method: as §1, §2
The test system of the next test is NCI-H929. Nature of the test: Cellular proliferation, CellTiter-Glo, NCI-H929. The format is cell-based. To be noted: Homo sapiens, 10% FBS, 72 hours. As for the experimental part:
as §1, §2

Setting [10] is: Table 3, binned ranges, read-out: Ki for inhibition of Mcl-1.

Molecules are shown by their SMILES. Where two headings read alike, the source gives them in different places. Some results are limits rather than exact numbers.

Chain of recombinant Mcl-1 (residues 172-327) (Q07820 172-327): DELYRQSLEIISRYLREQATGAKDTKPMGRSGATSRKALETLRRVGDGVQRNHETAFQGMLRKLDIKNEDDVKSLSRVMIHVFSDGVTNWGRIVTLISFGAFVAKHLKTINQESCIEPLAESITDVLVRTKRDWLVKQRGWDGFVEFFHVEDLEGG
Chain of Bcl-2 (residues 1-207 A96T,G110R, Δ35-91, replaced with Bcl-xL35-50) (P10415 other isoform, or with tags, fused parts or gaps, stated change not applied): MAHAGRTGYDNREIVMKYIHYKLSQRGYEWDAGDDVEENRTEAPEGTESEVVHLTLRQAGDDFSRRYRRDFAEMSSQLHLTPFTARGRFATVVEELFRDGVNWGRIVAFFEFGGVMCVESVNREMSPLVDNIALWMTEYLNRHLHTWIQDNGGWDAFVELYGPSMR
Chain of Bcl-xL (residues 1-209, loop 45-86 deleted) (Q07817 other isoform, or with tags, fused parts or gaps del 45-86): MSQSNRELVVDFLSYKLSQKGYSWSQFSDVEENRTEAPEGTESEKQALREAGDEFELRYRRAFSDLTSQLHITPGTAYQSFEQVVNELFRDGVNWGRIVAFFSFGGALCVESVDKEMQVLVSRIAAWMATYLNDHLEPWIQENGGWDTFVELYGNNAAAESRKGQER

For `Cc1cc(OCCCc2c(C)n(CCC(=O)O)c3c(-c4ccnn4C)cccc23)cc(C)c1Cl` [Example 70, 3-(3-(3-(4-chloro-3,5-dimethylphenoxy)propyl)-2-methyl-7-(1-methyl-1H-pyrazol-5-yl)-1H-indol-1-yl)propanoic acid], the Ki in test [1] (setting [10]) is at most 0.1 µM. The EC50 was 4.1 µM in the test with K562 [2] and 5.8 µM in the test with NCI-H23 [3].

As to `Cc1ccncc1-c1cccc2c(CCCOc3cc(C)c(Cl)c(C)c3)c(C)n(CCC(=O)O)c12` [Example 71, 3-(3-(3-(4-chloro-3,5-dimethylphenoxy)propyl)-2-methyl-7-(4-methylpyridin-3-yl)-1H-indol-1-yl)propanoic acid], in [1] (setting [10]), the Ki is at most 0.1 µM. Moreover, the EC50 in the test on K562 [2] came to 7 µM; in the test with NCI-H23 [3], 9.9 µM.

`Cc1cc(OCCCc2c(C)n(CCC(=O)O)c3c(-c4c(C)n[nH]c4C)cccc23)cc(C)c1Cl` [Example 74, 3-(3-(3-(4-chloro-3,5-dimethylphenoxy)propyl)-7-(3,5-dimethyl-1H-pyrazol-4-yl)-2-methyl-1H-indol-1-yl)propanoic acid]: in [1] (setting [10]), the Ki was at most 0.1 µM. Besides, the EC50 in the test on K562 [4] worked out at 21.2 µM; in the test on MV-4-11 [5], 11.5 µM; in the test with NCI-H23 [6], 19.8 µM; with K562 [2] it was 2 µM; in the test with NCI-H23 [3], 5.4 µM.

Turning to `Cc1cc(OCCCc2c(C)n(CCC(=O)O)c3c(-c4c(C)nn(C)c4C)cccc23)cc(C)c1Cl` [Example 76, 3-(3-(3-(4-chloro-3,5-dimethylphenoxy)propyl)-2-methyl-7-(1,3,5-trimethyl-1H-pyrazol-4-yl)-1H-indol-1-yl)propanoic acid], the Ki in [1] (setting [10]) is at most 0.1 µM; in test [1] (Table 4, read-out: Ki Mcl-1) it was 0.007 µM; in [7], 7.1 µM; in test [8], 7.9 µM. Further, the EC50 in the test with K562 [4] is 17.1 µM; with MV-4-11 [5] it was 16.2 µM; with MV-4-11 [9], 2.8 µM.

Turning to `Cc1cc(OCCCc2c(C)n(CCC(=O)O)c3c(-c4c(C)nn(C(C)C)c4C)cccc23)cc(C)c1Cl` [Example 78, 3-(3-(3-(4-chloro-3,5-dimethylphenoxy)propyl)-7-(1-isopropyl-3,5-dimethyl-1H-pyrazol-4-yl)-2-methyl-1H-indol-1-yl)propanoic acid], the inhibition constant Ki in [1] (setting [10]) was at most 0.1 µM. Moreover, the EC50 in the test on K562 [4] was 10 µM; in the test with MV-4-11 [5] it was 12.9 µM.

Regarding `Cc1cnccc1-c1cccc2c(CCCOc3cc(C)c(Cl)c(C)c3)c(C)n(CCC(=O)NS(C)(=O)=O)c12` [Example 83, 3-(3-(3-(4-chloro-3,5-dimethylphenoxy)propyl)-2-methyl-7-(3-methylpyridin-4-yl)-1H-indol-1-yl)-N-(methylsulfonyl)propanamide], the Ki in test [1] (setting [10]) was at most 0.1 µM. Moreover, the EC50 in the test on MV-4-11 [9] came to 1.9 µM.

As to `Cc1cc(OCCCc2c(C)n(CCC(=O)O)c3c(-c4c(C)nn(C)c4C)c(Cl)ccc23)cc(C)c1Cl` [Example 104, 3-(6-chloro-3-(3-(4-chloro-3,5-dimethylphenoxy)propyl)-2-methyl-7-(1,3,5-trimethyl-1H-pyrazol-4-yl)-1H-indol-1-yl)propanoic acid], the Ki in test [1] (setting [10]) was at most 0.1 µM. In addition, the values for the EC50 with K562 [4] and in the test on NCI-H929 were 24.8 µM and 20 µM, respectively.

Turning to `Cc1cc(OCCCc2c(C(F)(F)F)n(Cc3ccc(CC(=O)O)cc3)c3c(-c4c(C)nn(C)c4C)cccc23)cc(C)c1Cl` [Example 117, 2-(4-((3-(3-(4-chloro-3,5-dimethylphenoxy)propyl)-2-(trifluoromethyl)-7-(1,3,5-trimethyl-1H-pyrazol-4-yl)-1H-indol-1-yl)methyl)phenyl)acetic acid], the Ki in test [1] (setting [10]) was at most 0.1 µM. Also, the EC50 in the test with K562 [4] worked out at 14.8 µM; in the test with NCI-H929 it was 8.8 µM.

(Values after US10954193B2 (Vanderbilt University, priority 2013, dated 2021).)
